The values below come from patent US20230302159A1, “COMPOUNDS AND COMPOSITIONS FOR TUMOR DETECTION AND SURGICAL GUIDANCE” (Cornell University, priority 2020, published 2023).

Assay [1] has as its system SKOV3/GFP-Luc subcutaneous tumors. Kind of assay: In vivo fluorescence imaging of subcutaneous tumors by spraying, SKOV3/GFP-Luc model. More on the design: species or system mice. Conditions: for signal to background ratio: 2 μM. The protocol:
(§1) Tumor models of subcutaneous implants and peritoneal implants. All animal procedures were carried out in compliance with the approved animal protocols and guidelines of the Institutional Animal Care and Use Committee at Weil Cornell Medical College. Mice (female, SCID Hairless Outbred Mouse) were purchased from Charles River (Wilmington, MA). To establish the subcutaneous implants, a suspension of OVASAHO/RFP-Luc cells (5.0×10^6) or SKOV3/GFP-Luc cells (5.0×10^6) in 100 μL PBS was inoculated into each flank of the female nude mice on both sides. After two weeks, the tumor implants grew to around 5 mm in size and were used for the spray experiment. To establish the peritoneal implants, SKOV3/GFP-Luc cells (5.0×10^6) suspended in […] were injected into the abdominal cavities of the female nude mice. After two weeks, the tumor growth was examined with an in vivo bioluminescence imaging system followed by peritoneal injection of D-luciferin potassium solution (200 μL, 15 mg/mL) for 10 min. Generally, mice bearing multiple disseminated peritoneal implants of 5 mm size in diameter were used for the experiment.
In vivo fluorescence imaging of subcutaneous tumors. Two subcutaneous tumor models (OVASAHO/RFP-Luc and SKOV3/GFP-Luc) were used to compare the imaging capability of CypH-11, CypH-1, and Cy7. Mice bearing the subcutaneous implants were anesthetized in an induction chamber using 2% isoflurane, and anesthesia was maintained with 1.5-2.0% isoflurane via a nose cone. Sterile surgical tools were used to remove skin around the tumor. The mice images were captured using an IVIS SpectrumCT System from PerkinElmer (Waltham, MA). OVASAHO/RFP-Luc and SKOV3/GFP-Luc tumors were captured under an RFP channel (Excitation: 520-550 nm and Emission: 570-590 nm) and a GFP channel (Excitation: 450-480 nm and Emission: 510 530 nm), respectively. A Cy7 channel (Excitation: 730-760 nm and Emission: 790-810 nm) was applied to evaluate the fluorescence generated by CypH-11, CypH-1, and Cy7. After skin removal, the tumor area and the background fluorescence under the Cy7 channel were measured first. Solutions of CypH-11, CypH-1, and Cy7 (2 μM each) were sprayed on the surgical area, and the fluorescence of the Cy7 channel was measured continuously at each time point (1, 3, 5, 7, 10, and 15 min). Ten, five, and three OVASAHO tumors were used to evaluate CypH-11, CypH-1, and Cy7, respectively. Six SKOV3 tumors were used to evaluate CypH-11. To evaluate the tumor-to-normal tissue ratio, the whole tumor regions and the adjacent open-skin areas were drawn, and their fluorescence intensity was acquired by the IVIS software. Tumor-to-normal tissue ratio value was calculated as the average fluorescence intensity of the tumor divided by that of the normal area. Also, tumor-bearing mice were euthanized by carbon dioxide inhalation or a high dose of isoflurane (5%). The subcutaneous tumors and the adjacent muscles were then extracted, and CypH-11 (2 μM) was sprayed onto them. Images were subsequently captured under GFP/RFP/Cy7 channels.
(§2) Histology. To gain knowledge about the CypH-11 distribution in tumors after administration via spray and i.p. injection, the tumors were excised and analyzed. […] The slides were imaged first with a fluorescence microscope (EVOS, Thermofisher Scientific, Waltham, MA) and were subsequently stained with hematoxylin and eosin Y solution (H&E) to assess their histologic alterations under a light microscope.

Assay [2] concerns SKOV3/GFP-Luc disseminated peritoneal tumors. As to the kind of experiment: In vivo fluorescence imaging of disseminated peritoneal tumors after IP administration. More on the design: species or system mice. The protocol:
as §1
In vivo fluorescence imaging of disseminated peritoneal tumors. […] The fluorescence images were captured for the whole cavity under both the GFP and Cy7 channels. […] Regions of interest (ROI, n=6, and average area=0.28±0.1 cm^2) within the tumor nodules and in the adjacent normal areas in the peritoneal cavity were drawn and calculated for tumor-to-normal tissue ratio.
as §2

SMILES strings stand for the structures. Where “and” joins values, the source holds several entries; their conditions need not be identical. Equal entries are not always repeated. Entries after “also recorded” stand apart in the source; their conditions may differ.

As for `CC(C)N(C)c1ccc(OC2=C(/C=C/C3=[N+](C(C)C)c4ccccc4C3(C)C)CCC/C2=C\C=C2\N(C(C)C)c3ccccc3C2(C)C)cc1.[I-]` [CypH-11], the “signal to background ratio” value in assay [1] (1 min after spray) amounted to 1.3; in assay [1] (5 min after spray) it was 1.4; in assay [1] (10 min after spray), 1.6. Besides, in assay [1] (sprayed, 15 min, histology), the “NIR signal depth in tumor after spray” value is 2-3 layers of cells. In addition, in assay [1] (tumor and muscle excised, held 20 min, then sprayed), the “CypH-11 signal when sprayed ex vivo on excised 20-min old dead tissues” value is reported as “no NIR signal could be detected; also recorded: No CypH-11 signal in tumor or muscle was observed”. Besides, in assay [2] (1 h post IP, 200 μL 2 μM in PBS), the “tumor signal higher than the background of the peritoneum, liver, and intestine” value was 3- to 4 fold. Further, the “size of smallest tumors detected” value in assay [2] (1 h post IP, no washing) is 1 mm and < 1 mm. Also, the “NIR signal depth in tumor after IP injection” value in assay [2] (IP, within an hour, histology) was 6-7 layers of cells.
